# Experimental data taken from patent EP0624159B1, “PYRIDYL SUBSTITUTED IMIDAZOLES” (SMITHKLINE BEECHAM CORPORATION, priority 1992, dated 1993).
# Test system: TNF production by Human Monocytes
# Experiment: Inhibition of in vitro TNF production by LPS-stimulated human monocytes (radioimmunoassay / ELISA)
# Format: cell-based
# Settings: Monocyte; human peripheral blood monocytes, compound 45 minutes before LPS 100 ng/ml, 16-18 hours at 37°C
# Method: The effects of compounds of Formula (I) on the in vitro production of TNF by human monocytes was examined using the following protocol.
# Human peripheral blood monocytes were isolated and purified from either blood bank buffy coats or plateletpheresis residues, according to the procedure of Colotta, R. et al., J. Immunol., 132(2):936 (1984). The monocytes were plated at a density of 1 X 10^6 cells/ml medium/well in 24-well multi-dishes. […]
# The assay buffer consisted of 0.01M NaPO4, 0.15M NaCl, 0.025M EDTA and 0.1% sodium azide at pH 7.4. […] Tubes were centrifuged for 30 minutes at 2000 rpm, supernatants were carefully aspirated, and radioactivity associated with the pellets measured in a Beckman Gamma 5500 counter. […] The concentrations of TNF in the samples was read of a standard curve of rhTNF that was linear in the 157 to 20,000 pg/ml range.
# Iodination of rhTNF was performed using a modified chloramine-T method of Frolik et al., J. Biol. Chem., 259:10995-11000 (1984). […] The peak radioactivity containing fractions were pooled and stored at -20°C. […] Biological activity of iodinated TNF was measured by the L929 cytotoxicity assay of Neale, M.L. et al., Eur. J. Can. […]
row,IC50 [µM],SMILES
1,0.5 to 3.5,"Fc1ccc(-c2nc(-c3ccccc3)cn2-c2ccncc2)cc1 [Example 1, 1-(4-Pyridyl)-2-(4-fluorophenyl)-4-phenylimidazole]"
2,0.5 to 3.5,"Oc1ccc(-c2cn(-c3ccncc3)c(-c3ccc(F)cc3)n2)cc1 [Example 2, 1-(4-Pyridyl)-2-(4-fluorophenyl)-4-(4-hydroxyphenyl)imidazole]"

# Test system: IL-1 production by human monocytes
# Experiment: Inhibition of in vitro IL-1 production by LPS-stimulated human monocytes (IL-1 bioassay via EL-4 IL-2 secretion)
# Format: cell-based
# Settings: Monocyte; human peripheral blood monocytes, compound 1 hr before LPS 50 ng/ml, 24 hours at 37°C
# Method: The effects of compounds of Formula (I) on the in vitro production of IL-1 by human monocytes was examined using the following protocol.
# Bacterial lipopolysaccharide (LPS) was used to induce IL-1 production by human peripheral blood monocytes. IL-1 activity was measured by its ability to stimulate a Interleukin 2 (IL-2) producing cell line (EL-4) to secrete IL-2, in concert with A23187 ionophore, according to the method of Simon et al., J. Immunol. Methods, 84, 85, (1985). Human peripheral blood monocytes were isolated and purified from either fresh blood preparations from volunteer donors, or from blood bank buffy coats, according to the procedure of Colotta et al., J. Immunol., 132, 936 (1984). 1 X 10^6 of such monocytes were plated in 24-well plates at a concentration of 1-2 million/ml per well. The cells were allowed to adhere for 2 hours, after which time non-adherent cells were removed by gentle washing. Test compounds were then added to the cells for 1 hour (hr) before the addition of lipopolysaccharide (50 ng/ml), and the cultures were incubated at 37°C for an additional 24 hours. At the end of the incubation period, culture supernatants were removed and clarified of cells and all debris. Culture supernatants were immediately assayed for IL-1 biological activity in the manner described above, as well as for prostaglandin and/or leukotriene concentrations by radioimmunoassay.
row,IC50 [µM],SMILES
1,0.1 to 5,"Fc1ccc(-c2nc(-c3ccccc3)cn2-c2ccncc2)cc1 [Example 1, 1-(4-Pyridyl)-2-(4-fluorophenyl)-4-phenylimidazole]"
2,0.1 to 5,"Oc1ccc(-c2cn(-c3ccncc3)c(-c3ccc(F)cc3)n2)cc1 [Example 2, 1-(4-Pyridyl)-2-(4-fluorophenyl)-4-(4-hydroxyphenyl)imidazole]"
3,> 5,"CSc1ccc(-c2cn(-c3ccncc3)c(-c3ccc(F)cc3)n2)cc1 [Example 3, 1-(4-Pyridyl)-2-(4-fluorophenyl)-4-(4-thiomethylphenyl) imidazole]"
4,> 5,"C[S+]([O-])c1ccc(-c2cn(-c3ccncc3)c(-c3ccc(F)cc3)n2)cc1 (stereo not shown) [Example 4, 1-(4-Pyridyl)-2-(4-fluorophenyl)-4-(4-methylsulfinylphenyl)imidazole]"
5,0.1 to 5,"Cc1cn(-c2ccncc2)c(-c2ccc(F)cc2)n1 [Example 5, 1-(4-pyridyl)-2-(4-fluorophenyl)-4-methylimidazole]"
